Test results: ChEMBL document CHEMBL1131981, “Heterocyclic analogues of 2-aminotetralins with high affinity and selectivity for the dopamine D3 receptor” (Bioorg Med Chem Lett, 1999)

Assays:
[1] = target: T1, D(3) dopamine receptor (Homo sapiens, UniProt P35462)
Description: Tested for the ability to displace [125I]iodosulpiride from human cloned Dopamine receptor D3, expressed in CHO cells

[2] = target: T2, D(2) dopamine receptor (Homo sapiens, UniProt P14416); experiment: Tested for the ability to displace [125I]iodosulpiride from human cloned Dopamine receptor D2, expressed in CHO cells.; assay type: cell-based
[3] = target: T1, D(3) dopamine receptor; experiment: Functional activity in vitro using microphysiometry at Dopamine receptor D3; Agonist; settings: filed as agonist
[4] = target: T1, D(3) dopamine receptor; experiment: Tested for the functional activity in vitro using microphysiometry at Dopamine receptor D3; antagonist; settings: filed as antagonist
[5] = target: T2, D(2) dopamine receptor; experiment: Displacement of [125I]iodosulpiride from human Dopamine receptor D2 expressed in CHO cells; assay type: cell-based

T1 sequence (P35462 whole entry): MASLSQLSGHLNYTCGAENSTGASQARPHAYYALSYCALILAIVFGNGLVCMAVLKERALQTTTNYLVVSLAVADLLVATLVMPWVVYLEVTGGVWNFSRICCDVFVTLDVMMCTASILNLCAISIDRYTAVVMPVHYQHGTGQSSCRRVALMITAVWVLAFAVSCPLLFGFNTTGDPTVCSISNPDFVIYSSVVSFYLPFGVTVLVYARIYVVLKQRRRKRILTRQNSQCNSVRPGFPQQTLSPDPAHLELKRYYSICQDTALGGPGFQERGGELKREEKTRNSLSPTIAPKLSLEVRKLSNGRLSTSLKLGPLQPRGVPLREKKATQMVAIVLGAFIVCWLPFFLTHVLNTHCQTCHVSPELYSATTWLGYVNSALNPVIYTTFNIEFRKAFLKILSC
T2 sequence (P14416 whole entry): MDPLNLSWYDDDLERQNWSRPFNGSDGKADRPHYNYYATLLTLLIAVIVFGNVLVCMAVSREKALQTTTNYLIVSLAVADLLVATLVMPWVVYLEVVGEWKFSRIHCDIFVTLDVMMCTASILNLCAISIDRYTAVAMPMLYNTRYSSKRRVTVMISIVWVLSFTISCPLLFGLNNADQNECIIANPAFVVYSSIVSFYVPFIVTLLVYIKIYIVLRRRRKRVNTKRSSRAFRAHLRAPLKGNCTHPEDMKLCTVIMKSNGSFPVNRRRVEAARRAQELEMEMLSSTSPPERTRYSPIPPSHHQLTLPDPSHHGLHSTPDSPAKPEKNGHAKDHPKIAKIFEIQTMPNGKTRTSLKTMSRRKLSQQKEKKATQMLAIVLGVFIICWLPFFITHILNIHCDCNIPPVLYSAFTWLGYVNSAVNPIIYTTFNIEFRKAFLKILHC

| Compound | Ki [1] | Ki [2] | Function [3] | Function [4] | Ki [5] |
| --- | --- | --- | --- | --- | --- |
| CCCN(CCCCNC(=O)c1ccc(-c2ccccc2)cc1)C1CCc2ncnc(OC)c2C1 (stereo not given) | 3.16 nM | 1580 nM | Agonist | – | – |
| CCCN(CCCCNC(=O)c1ccc(-c2ccccc2)cc1)C1CCc2nc(N)ncc2C1 (stereo not given) | 0.794 nM | 158 nM | Agonist | – | – |
| CCCN(CCCCNC(=O)c1ccc(-c2ccccc2)cc1)C1CCc2nc(NC)ncc2C1 (stereo not given) | 15.8 nM | 2510 nM | Agonist | – | – |
| CCCN(CCCCNC(=O)c1ccc(-c2ccccc2)cc1)C1CCc2nc(C(C)(C)C)ncc2C1 (stereo not given) | 12.6 nM | 1580 nM | – | Antagonist | – |
| CN(CCCCNC(=O)c1ccc(-c2ccccc2)cc1)C1CCc2nc(N)ncc2C1 (stereo not given) | 10 nM | 1580 nM | Agonist | – | – |
| CCCN1COC[C@@H]2c3cc(O)ccc3OC[C@H]21 | 25.1 nM | – | – | – | 2510 nM |
| CCCN(CCCCNC(=O)c1ccc(-c2ccccc2)cc1)C1CCc2ncncc2C1 (stereo not given) | 126 nM | 1260 nM | – | – | – |
| CCCN(CCCCNC(=O)c1ccc(-c2ccccc2)cc1)C1CCc2n[nH]cc2C1 (stereo not given) | 3.16 nM | 501 nM | Agonist | – | – |
| CCCNC1CCc2nc(N)sc2C1 (stereo not given) | 10 nM | – | – | – | – |
| CCCN(CCCCNC(=O)c1ccc(-c2ccccc2)cc1)C1CCc2nc(N)sc2C1 (stereo not given) | 0.501 nM | 200 nM | Agonist | – | – |
| CCCN(CCCCNC(=O)c1ccc(-c2ccccc2)cc1)C1CCc2nc(SC)ncc2C1 (stereo not given) | 15.8 nM | 1260 nM | – | Antagonist | – |
| CCCN(CCCCNC(=O)c1ccc(-c2ccccc2)cc1)C1CCc2nc(C)ncc2C1 (stereo not given) | 7.94 nM | 2510 nM | Agonist | – | – |
| CCCN(CCCCNC(=O)c1ccc(-c2ccccc2)cc1)C1CCc2nc(N(C)C)ncc2C1 (stereo not given) | 25.1 nM | 1580 nM | – | Antagonist | – |
